Reference: PubChem BioAssay AID2060494 (Molecular Pharmacology Branch, DTP, NCI, 2025)

Test system: 435261-313-R-J1-PDC complex spheroid viability
Assay: Anticancer human tumor 435261-313-R-J1-PDC patient-derived colon adenocarcinoma cell line growth inhibition [GQUAD]
Conditions: for IC50: curve of first compound; for viability, T/C: stronger effect = lower value; active means viability on the fitted dose curve at most 10% of control; inactive means the rest
Excerpt: DNA G-quadruplex Stabilizer Agents in Combinations in Complex Spheroids
A high-throughput screen of multi-cell type tumor spheroids was designed to identify active combinations of DNA G-quadruplex stabilizer agents and targeted small molecules. Complex spheroids include a stromal component modeled by human endothelial cells (HUVEC) and fibroblasts modeled by human mesenchymal stem cells (MSCs). The concentration ranges selected for each drug and investigational agent were based upon clinically achievable concentrations if the clinical Cmax of the agent was known.
Compounds. The drugs and investigational agents: pidnarulex (CX-5461; NSC782164), APTO-253 (NSC789042), BRACO-19 (NSC847499), peposertib (NSC802822), ceralasertib (NSC780249), elimusertib (NSC800525), camonsertib (NSC841442), AZD-1390 (NSC803789), olaparib (NSC753686), talazoparib (NSC767125), ART-558 (NSC835418), sotorasib (NSC818433), MRTX-1133 (NSC836407), SN-38 (NSC673596), topotecan (NSC609699), etoposide (NSC141540), doxorubicin (NSC123127), gemcitabine (NSC613327), 5-fluorouracil (NSC19893), paclitaxel (NSC125973), vemurafenib (NSC761431), panobinostat (NSC761190), R-306465 (JNJ-16241199; NSC773264), adavosertib (NSC754352), TP-3654 (NSC805149), carboplatin (NSC241240), KSQ-4279 (NSC840948), and staurosporine (NSC755774) were obtained from the National Cancer Institute (NCI) Developmental Therapeutics Program Chemical Repository (34). The FDA-approved anticancer drug set is available from the NCI Developmental Therapeutics Program. […] The stock solutions were prepared in dimethyl sulfoxide (DMSO, Sigma-Aldrich, St. Louis, MO, cat. D2650) at 800-fold the tested concentration and stored at -70 degrees C prior to their use. All drugs and investigational agents were tested over a range starting from a high concentration at or near the clinical Cmax and decreasing in half-log increments. If the clinical Cmax for an agent had not been determined, the highest concentration tested was 10 microM.
2.3 Cell Culture. All cells were maintained in an incubator at 37 degrees C and 5% CO2 with 95% humidity. The PDC lines were cultured according to standard operating procedures established by the NCI PDMR. All PDCs were thawed and cultured in Matrigel-coated flasks prepared with a working solution of 1X Ham's F-12 nutrient mix, without supplementation (Invitrogen, cat. 11765054), 100 U/mL penicillin-streptomycin (Invitrogen, cat. 15140122), and 2.5% Matrigel (Corning Inc., cat. 354248) for the first three passages. The 857933-349-R-J2-PDC line was cultured in 6C/Colon 1B media, which includes advanced DMEM/F-12 (Thermo Fisher Scientific, cat. 12634028), 10 mM HEPES (Thermo Fisher Scientific, cat. 15630080), 1X GlutaMAX supplement (Thermo Fisher Scientific, cat. 35050061), 0.1 mg/mL primocin (InvivoGen, cat. ant-pm-2), 10% defined fetal bovine serum, heat inactivated (HyClone Laboratories Inc., cat. SH30070.03HI), 50% L-WRN conditioned media (ATCC, cat. CRL-3276), 1.25 mM N-Acetyl-L-cysteine (Sigma-Aldrich, cat. A9165), 10 mM nicotinamide (Sigma-Aldrich, cat. N0636), 1X B-27 supplement (Thermo Fisher Scientific, cat. 17504044), 1X N-2 supplement (Thermo Fisher Scientific, cat. 17502048), 10 microM Y-27632 dihydrochloride (Tocris Bioscience, cat. 1254), and 50 ng/mL human EGF recombinant protein (Thermo Fisher Scientific, cat. PHG0311). The 485176-168-R4-J1-PDC line was cultured in Panc media, which includes all 6C/Colon 1B media components plus 100 ng/mL human FGF-10 (Thermo Fisher Scientific, cat. 100-26), 500 nM SB-431542 (Selleckchem, cat. S1067), and gastrin (Tocris, cat. 3006).
[…]
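Further: spheroids exposed to the agents for seven days before readout.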
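Wherever viability, T/C is given: percent of vehicle control viability with DMSO wells as 100%.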

CC1COCCN1c1cc(C2(S(C)(=N)=O)CC2)nc(-c2ccnc3[nH]ccc23)n1 (configuration not stated) + CN(C)c1ccc(Nc2c3ccc(NC(=O)CCN4CCCC4)cc3nc3cc(NC(=O)CCN4CCCC4)ccc23)cc1
inactive: viability, T/C (second compound 0.0316 µM, first compound 0.0316 µM) 153% | viability, T/C (second compound 0.0316 µM, first compound 0.1 µM) 99.2% | viability, T/C (second compound 0.0316 µM, first compound 0.316 µM) 71.8% | viability, T/C (second compound 0.0316 µM, first compound 1 µM) 98% | viability, T/C (second compound 0.0316 µM, first compound 3.16 µM) 69.2% | viability, T/C (second compound 0.0316 µM, first compound 10 µM) 70.7% | viability, T/C (second compound 0.1 µM, first compound 0.0316 µM) 88.2% | viability, T/C (second compound 0.1 µM, first compound 0.1 µM) 96.2% | viability, T/C (second compound 0.1 µM, first compound 0.316 µM) 106% | viability, T/C (second compound 0.1 µM, first compound 1 µM) 79.1% | viability, T/C (second compound 0.1 µM, first compound 3.16 µM) 76.7% | viability, T/C (second compound 0.1 µM, first compound 10 µM) 51.8% | viability, T/C (second compound 0.316 µM, first compound 0.0316 µM) 89.4% | viability, T/C (second compound 0.316 µM, first compound 0.1 µM) 101% | viability, T/C (second compound 0.316 µM, first compound 0.316 µM) 89.8% | viability, T/C (second compound 0.316 µM, first compound 1 µM) 68.6% | viability, T/C (second compound 0.316 µM, first compound 3.16 µM) 64.6% | viability, T/C (second compound 0.316 µM, first compound 10 µM) 53.7% | viability, T/C (second compound 1 µM, first compound 0.0316 µM) 109% | viability, T/C (second compound 1 µM, first compound 0.1 µM) 115% | viability, T/C (second compound 1 µM, first compound 0.316 µM) 87.6% | viability, T/C (second compound 1 µM, first compound 1 µM) 81.4% | viability, T/C (second compound 1 µM, first compound 3.16 µM) 79% | viability, T/C (second compound 1 µM, first compound 10 µM) 51.2% | viability, T/C (second compound 3.16 µM, first compound 0.0316 µM) 61.1% | viability, T/C (second compound 3.16 µM, first compound 0.1 µM) 55.8% | viability, T/C (second compound 3.16 µM, first compound 0.316 µM) 68.3% | viability, T/C (second compound 3.16 µM, first compound 1 µM) 76.2% | viability, T/C (second compound 3.16 µM, first compound 3.16 µM) 50.6% | viability, T/C (second compound 3.16 µM, first compound 10 µM) 45.3% | viability, T/C (second compound 10 µM, first compound 0.0316 µM) 55.3% | viability, T/C (second compound 10 µM, first compound 0.1 µM) 50.3% | viability, T/C (second compound 10 µM, first compound 0.316 µM) 32.9% | viability, T/C (second compound 10 µM, first compound 1 µM) 23.8% | viability, T/C (second compound 10 µM, first compound 3.16 µM) 22.6% | viability, T/C (second compound 10 µM, first compound 10 µM) 17%
> 10 µM: IC50 (second compound 0.0316 µM) | IC50 (second compound 0.1 µM) | IC50 (second compound 0.316 µM) | IC50 (second compound 1 µM) | IC50 (second compound 3.16 µM)
0.0883 µM: IC50 (second compound 10 µM)
